The record followed here is patent publication US20140243332A1, “METHODS OF TREATING CANCERS CHARACTERIZED BY ABERRENT ROS1 ACTIVITY” (Oregon Health & Science University, priority 2013, published 2014).

Values joined by “and” are separate entries in the source; they are usually repeats but may differ in a detail not shown here. Equal values may be shown once. Read-outs that look alike come from different tables or passages of the source. Some results are limits rather than exact numbers.

Assay [1] concerns the target T1, Ba/F3 FIG-ROS cells (Homo sapiens, UniProt P08922).
T1 construct: fused on or other part: GFP is co-expressed from an IRES in pMIG and is not fused; Q9HD26 (Golgi-associated PDZ and coiled-coil motif-containing protein)
Put plainly: Cell viability (MTS) assay, Ba/F3 FIG-ROS. Format: cell-based. The conditions noted are these: read-out: IC50 (50% growth inhibitory concentration); Ba/F3 FIG-ROS cells, 72 hours, MTS. An excerpt: Ba/F3 cell lines were maintained at densities of 0.5×10^6 to 1.5×10^6 per ml of media. FIG-ROS and SLC-ROS Ba/F3 lines were created by infecting the parental Ba/F3 with retrovirus expressing either human FIG-ROS-S (indicated FIG-ROS herein) or SLC-ROS-S (indicated SLC-ROS herein). Stable transfectant lines were sorted for GFP expression on a FACS Aria® flow cytometer. Cells were counted daily using Guava ViaCount® reagent and Guava Personal Cell Analysis® flow cytometer. […] Early passage NIH3T3 cells were infected with retrovirus expressing either FIG-ROS or SLC-ROS and sorted for GFP expression as described above for Ba/F3 cells. […] This media is referred to as RPMI-10% FBS herein.
The FIG-ROS-S (FIG-ROS) fusion protein has been reported in non-small cell lung cancers (NSCLC), glioblastomas, and cholangiocarcinomas.

The subject of assay [2] is Ba/F3 parental cells. Put plainly: Cell viability (MTS) assay, Ba/F3 parental. The assay is classed as cell-based. Particulars: Mus musculus. The method, then: (§1) The parental Ba/F3 cell line was cultured in RPMI 1640 medium with 10% FBS, L-glutamine, penicillin/streptomycin and 15% WEHI-conditioned media. Ba/F3 cell lines were maintained at densities of 0.5×10^6 to 1.5×10^6 per ml of media. FIG-ROS and SLC-ROS Ba/F3 lines were created by infecting the parental Ba/F3 with retrovirus expressing either human FIG-ROS-S (indicated FIG-ROS herein) or SLC-ROS-S (indicated SLC-ROS herein). Stable transfectant lines were sorted for GFP expression on a FACS Aria® flow cytometer. Cells were counted daily using Guava ViaCount® reagent and Guava Personal Cell Analysis® flow cytometer. […] Early passage NIH3T3 cells were infected with retrovirus expressing either FIG-ROS or SLC-ROS and sorted for GFP expression as described above for Ba/F3 cells. HCC78 cells were cultured in RPMI 1640 medium with 10% FBS, L-glutamine, and penicillin/streptomycin. This media is referred to as RPMI-10% FBS herein.
(§2) […]. The Ba/F3 parental line was also tested. (O'Dwyer M E and Druker B J, Lancet Oncology 1, 207-211 (2000); Walters D K et al, Cancer Cell 10, 65-75 (2006); and Heukamp L C et al, Science Translational Medicine 4, 141ra191 (2012); […].

In assay [3] the target is T1, Ba/F3 FIG-ROS cells. Put plainly: Apoptosis induction (Annexin V / 7-AAD), Ba/F3 FIG-ROS. The conditions noted are these: 15 nM, 48 hours. Format: cell-based. On the procedure:
(§3) FIG. 5A is a set of three bar graphs depicting the induction of apoptosis in Ba/F3 FIG-ROS, Ba/F3 SLC-ROS and Ba/F3 ALK F1174L cells after 48 hours of treatment with the indicated doses of the indicated compounds. The number of cells that were Annexin V and 7-AAD positive after inhibitor treatment was normalized to number of cells staining positive with these markers with vehicle treatment (basal). A minimum of 2000 cells were counted per condition. Rate of apoptosis is shown as fold over basal. Basal apoptosis in Ba/F3 FIG-ROS, Ba/F3 SLC-ROS and Ba/F3 ALK F1174 cells was 3.6%, 2.8% and 1.2% respectively.

The target of assay [4] is T2, Ba/F3 SLC-ROS cells (Homo sapiens, UniProt P08922).
T2 construct: SLC-ROS-S (SLC-ROS) was cloned from cDNA made from HCC78 cells; fused on or other part: GFP is co-expressed from an IRES in pMIG and is not fused; O95436 (Sodium-dependent phosphate transport protein 2B)
T2 sequence (P08922 whole entry, change not shown, the tested form may be a part): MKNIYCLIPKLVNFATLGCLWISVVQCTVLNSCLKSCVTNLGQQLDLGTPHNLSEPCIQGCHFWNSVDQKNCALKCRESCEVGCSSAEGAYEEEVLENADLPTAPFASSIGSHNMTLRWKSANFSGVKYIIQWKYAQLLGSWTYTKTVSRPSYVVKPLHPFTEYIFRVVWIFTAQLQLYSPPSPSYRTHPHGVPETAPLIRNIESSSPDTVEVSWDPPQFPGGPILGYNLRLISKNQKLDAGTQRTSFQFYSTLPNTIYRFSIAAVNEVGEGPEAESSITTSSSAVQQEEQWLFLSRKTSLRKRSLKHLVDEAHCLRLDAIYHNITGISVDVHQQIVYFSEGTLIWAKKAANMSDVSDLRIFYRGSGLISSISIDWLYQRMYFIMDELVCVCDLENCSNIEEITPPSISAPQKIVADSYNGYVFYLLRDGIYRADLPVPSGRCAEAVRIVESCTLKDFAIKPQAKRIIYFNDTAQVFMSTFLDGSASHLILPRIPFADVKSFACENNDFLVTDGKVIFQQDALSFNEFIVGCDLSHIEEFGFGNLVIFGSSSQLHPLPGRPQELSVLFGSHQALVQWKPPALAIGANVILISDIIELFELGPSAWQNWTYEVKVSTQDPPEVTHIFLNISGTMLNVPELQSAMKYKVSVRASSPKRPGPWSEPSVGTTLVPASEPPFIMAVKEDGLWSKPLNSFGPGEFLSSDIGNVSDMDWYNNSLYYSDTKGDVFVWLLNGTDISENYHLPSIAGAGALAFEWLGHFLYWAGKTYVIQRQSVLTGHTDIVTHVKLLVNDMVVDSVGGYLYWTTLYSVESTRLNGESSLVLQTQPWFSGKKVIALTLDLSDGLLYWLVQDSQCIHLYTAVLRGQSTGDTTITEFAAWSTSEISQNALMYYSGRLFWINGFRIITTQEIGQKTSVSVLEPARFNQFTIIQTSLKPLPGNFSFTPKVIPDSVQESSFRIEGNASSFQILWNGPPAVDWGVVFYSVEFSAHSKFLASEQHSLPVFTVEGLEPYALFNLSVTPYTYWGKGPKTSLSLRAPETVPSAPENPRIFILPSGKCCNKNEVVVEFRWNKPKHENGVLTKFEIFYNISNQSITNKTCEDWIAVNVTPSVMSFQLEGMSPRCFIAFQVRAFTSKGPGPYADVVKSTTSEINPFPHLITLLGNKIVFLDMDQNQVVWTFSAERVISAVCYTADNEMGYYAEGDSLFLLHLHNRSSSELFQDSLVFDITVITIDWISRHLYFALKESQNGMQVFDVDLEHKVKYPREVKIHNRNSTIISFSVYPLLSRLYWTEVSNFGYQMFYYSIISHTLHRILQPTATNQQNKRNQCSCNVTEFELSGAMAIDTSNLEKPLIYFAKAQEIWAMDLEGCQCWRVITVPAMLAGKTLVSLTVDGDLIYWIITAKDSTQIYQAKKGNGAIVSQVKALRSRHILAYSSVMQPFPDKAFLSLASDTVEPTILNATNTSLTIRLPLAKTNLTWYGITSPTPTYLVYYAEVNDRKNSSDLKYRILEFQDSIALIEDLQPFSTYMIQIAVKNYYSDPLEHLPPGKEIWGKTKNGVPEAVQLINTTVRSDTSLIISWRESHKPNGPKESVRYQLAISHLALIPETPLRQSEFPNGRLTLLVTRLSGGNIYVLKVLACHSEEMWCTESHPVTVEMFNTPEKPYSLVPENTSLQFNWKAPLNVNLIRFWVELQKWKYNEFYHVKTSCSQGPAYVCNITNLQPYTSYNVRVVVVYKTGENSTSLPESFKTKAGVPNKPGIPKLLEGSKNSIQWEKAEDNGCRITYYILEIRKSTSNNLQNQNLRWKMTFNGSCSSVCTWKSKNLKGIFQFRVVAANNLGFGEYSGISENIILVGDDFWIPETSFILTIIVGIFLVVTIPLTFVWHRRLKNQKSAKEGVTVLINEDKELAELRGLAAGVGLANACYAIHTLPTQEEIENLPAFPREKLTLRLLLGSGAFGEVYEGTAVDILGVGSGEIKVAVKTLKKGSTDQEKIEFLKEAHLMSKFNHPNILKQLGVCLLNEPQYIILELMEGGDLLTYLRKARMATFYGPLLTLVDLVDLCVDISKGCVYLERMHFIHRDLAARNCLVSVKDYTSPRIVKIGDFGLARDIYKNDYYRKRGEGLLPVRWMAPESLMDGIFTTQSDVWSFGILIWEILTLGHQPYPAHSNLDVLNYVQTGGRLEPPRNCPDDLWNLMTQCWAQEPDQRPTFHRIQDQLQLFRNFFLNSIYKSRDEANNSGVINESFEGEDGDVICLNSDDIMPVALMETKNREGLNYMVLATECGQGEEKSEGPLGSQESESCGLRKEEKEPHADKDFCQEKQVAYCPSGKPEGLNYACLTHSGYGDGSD
Nature of the assay: Apoptosis induction (Annexin V / 7-AAD), Ba/F3 SLC-ROS. The conditions noted are these: 15 nM, 48 hours. The assay is classed as cell-based. On the procedure: as §3

The target of assay [5] is T3, FIG-ROS (Homo sapiens, UniProt P08922). Put plainly: Immunoblot of Ba/F3 FIG-ROS lysates. Format: cell-based. More on the design: expressed in transfected cells; host or cells: Ba/F3 (A14), retroviral pMSCV-IRES-GFP; the other entry of the earlier key: GOPC (Q9HD26, Golgi-associated PDZ and coiled-coil motif-containing protein). The conditions noted are these: Ba/F3 FIG-ROS cells, increasing amounts, immunoblot FIG. 1C. On the procedure: (§4) FIG. 1C is an image of an immunoblot of lysates of Ba/F3 FIG-ROS and Ba/F3 SLC-ROS and the indicated downstream effectors after treatment with the indicated compounds. Images shown are representative of three independent experiments.
T3 sequence (P08922 with tags, fused parts or gaps): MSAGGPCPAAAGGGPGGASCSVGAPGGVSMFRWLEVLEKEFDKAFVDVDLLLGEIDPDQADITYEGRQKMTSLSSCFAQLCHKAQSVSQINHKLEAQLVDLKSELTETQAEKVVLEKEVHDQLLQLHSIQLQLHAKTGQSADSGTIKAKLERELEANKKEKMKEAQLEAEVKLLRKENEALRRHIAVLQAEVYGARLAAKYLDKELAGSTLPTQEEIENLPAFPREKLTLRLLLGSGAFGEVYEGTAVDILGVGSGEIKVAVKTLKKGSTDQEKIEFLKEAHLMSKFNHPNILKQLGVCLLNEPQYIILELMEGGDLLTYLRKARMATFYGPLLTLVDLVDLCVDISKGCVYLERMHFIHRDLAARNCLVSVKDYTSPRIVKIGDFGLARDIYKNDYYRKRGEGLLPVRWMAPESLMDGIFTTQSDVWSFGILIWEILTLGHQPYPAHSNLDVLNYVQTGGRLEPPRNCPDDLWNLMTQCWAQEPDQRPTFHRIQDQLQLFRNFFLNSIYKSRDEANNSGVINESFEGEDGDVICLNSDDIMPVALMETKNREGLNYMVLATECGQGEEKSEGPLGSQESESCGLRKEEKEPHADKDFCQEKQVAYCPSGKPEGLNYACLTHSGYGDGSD
(§5) Ba/F3 FIG-ROS, Ba/F3 SLC-ROS, HCC78 and mCC cell lines were treated with the indicated concentration of inhibitors for 1-2 hours. […] The protein content of the cell lysates was determined and lysates were either used for immunoprecipitation where indicated or extracted with SDS Sample buffer for 15 minutes at 80° C. Proteins were transferred to Immobilon-FL membranes and immunoblotted with antibodies specific for phospho-ROS1 (Cell Signaling Technology (CST) #3078), total ROS1 (CST #3266), phopsho-Shp2 (CST #3751), total Shpt (CST #3752), phospho-Stat3 (CST #9145), total Stat3 (CST #4904), phospho-Erk1/2 (CST #9101), total Erk2 (Santa Cruz #SC-1647), phospho-S6 (CST #4858), total S6 (CST #2216), phospho-Src (CST #2105), total Src (CST #2110), α-tubulin (Sigma T6199), or β-actin (Sigma A1978) as indicated. Images of the blots were generated by the LI-COR Odyssey® imaging system, following the manufacturer's protocol for immunoblot detection with use of IR-dye conjugated secondary antibodies.
(In general: Immunoblotting shows a protein as a band on a membrane.)

For assay [6], the target named is SLC-ROS (Homo sapiens, UniProt P08922). Put plainly: Immunoblot of Ba/F3 SLC-ROS lysates. Further details: SLC34A2 N-terminal portion, fusion partner; expressed in transfected cells; host or cells: Ba/F3 (A15), retroviral pMIG; the other entry of the earlier key: SLC34A2 (O95436, Sodium-dependent phosphate transport protein 2B). The assay is classed as cell-based. Particulars: Ba/F3 SLC-ROS cells, increasing amounts, immunoblot FIG. 1C. The method, then:
as §4, §5

The test system of assay [7] is HCC78 cells. Nature of the assay: Cell viability (MTS) assay, HCC78. Format: cell-based, human. Particulars: for HCC78 cell growth sensitivity to MET inhibitors: FIG. 6C. The method, then:
as §1

In assay [8] the target is T2, Ba/F3 SLC-ROS cells. Nature of the assay: Cell viability (MTS) assay, Ba/F3 SLC-ROS. Format: cell-based. The conditions noted are these: 72 hours, read-out: IC50 (the source's name). The method, then:
as §1, §2

The subject of assay [9] is PC9 cells. Nature of the assay: Cell viability assay, PC9. Format: cell-based, human. Particulars: PC9 cells (activated EGFR), FIG. 6B. The method, then:
(§6) IC50 was determined from non-linear regression curve fit analysis of the dose response curves.

The subject of assay [10] is HCC4011 cells. Nature of the assay: Cell viability assay, HCC4011. The assay is classed as cell-based, human. Particulars: HCC4011 cells (activated EGFR), FIG. 6B. The method, then: as §6
The subject of assay [11] is FIG-ROS murine cholangiocarcinoma tumor cells. Put plainly: cells. The conditions noted are these: Mus musculus, read-out: IC50 cell growth. The method, then: (§7) Hepatoblasts of the genotype AlbCre^+/−; Isl Kras^G12D+/−; p53^R172H/loxp were isolated from ED14.5 mouse embryos and retrovirally transduced with either the FIG-ROS fusion, turbo RFP or a short hairpin RNA against Pten (shPten.1522). At 48 hours following transduction, 1×10^6 cells were resuspended in 25 μl Matrigel and injected sub-capsular into the livers of immune-deficient mice. Upon tumor formation, tumors were explanted and subjected to collagenase digestion. Digests were plated onto gelatin-coated plates. Tumor cells were enriched by either differential trypsinization or cell sorting. […] These four cell lines were further cultured and maintained in DMEM-High glucose medium supplemented with 10% FCS, L-glutamine and penicillin/streptomycin.
(§8) Cell lines were distributed in 96-well plates and incubated with the indicated concentrations of inhibitor for 72 hours. […] Ba/F3 cell lines were plated at 4×10^3 cells/well. HCC78 and mCC cell lines were plated at 1.5×10^3 cells/well. All cell types were seeded in a final volume of 80 microliters. A 20 microliter volume of five-fold concentrated inhibitor media was added. Cell proliferation was measured using a […] viability assay (CellTiter96 Aqueous One® Solution; Promega). A BioTek Synergy 2® plate reader was used to read the absorbance at 490 nm at 30 minutes and 1 hour after addition of MTS. To facilitate comparison between experiments, the raw MTS absorbance of vehicle (0.1% DMSO) treated cells was set to 1 and absorbance from inhibitor treated wells was normalized to the vehicle treated value. […] Data were normalized using Microsoft Excel® and further non-linear regression curve fit analysis of the normalized data for determination of IC50 was performed using Graphpad Prism® software.
(§9) To directly assess inhibition of FIG-ROS phosphorylation, immunoblot analyses of lysates from vehicle or inhibitor-treated cells were performed.

In assay [12] the test system is shPten murine cholangiocarcinoma tumor cells. Nature of the assay: cells. Particulars: Mus musculus, read-out: IC50 cell growth. The method, then: as §7, §8, §9
Assay [13] deals with FIG-ROS cholangiocarcinoma tumor cells. Nature of the assay: Anchorage-independent colony formation in soft agar, FIG-ROS cholangiocarcinoma cells. Format: cell-based, murine. Particulars: dose dependent. An excerpt: […]. The values indicate the mean and the error bars indicate the standard error of the mean of 3 independent wells.
(§10) . The inhibition was dose dependent (FIG. 2B). […].

Assay [14] has as its system FIG-ROS tumors. Nature of the assay: In vivo treatment of mice bearing subcutaneous FIG-ROS cholangiocarcinoma tumors. The conditions noted are these: 25 mg/kg oral gavage once daily, 9 days, immunodeficient mice; foretinib p<0.0001 for Lines 4 and 6.
The subject of assay [15] is ENU-treated Ba/F3 FIG-ROS cells. Nature of the assay: Accelerated cell-based (ENU) mutagenesis screen, outgrowth of Ba/F3 FIG-ROS clones.
Assay [16] addresses T3, FIG-ROS. Put plainly: Immunoblot of FIG-ROS murine cholangiocarcinoma cell lysates. The assay is classed as cell-based. Further details: expressed in transfected cells; host or cells: murine cholangiocarcinoma tumour cell lines (lines 3 and 4) derived from transduced mouse hepatoblasts; the other entry of the earlier key: GOPC (Q9HD26, Golgi-associated PDZ and coiled-coil motif-containing protein). Particulars: 100 nM, FIG-ROS murine cholangiocarcinoma cells. The method, then:
[…]. Images shown are representative of three independent experiments.
as §5, §10

The mark [17] stands for this setting: BaF3, Ba/F3 parental cells, read-out: IC50 (insensitive/resistant up to stated concentration).

T1 sequence (P08922 whole entry, change not shown, the tested form may be a part): as the sequence (P08922 whole entry, change not shown, the tested form may be a part) above
Sequence of SLC-ROS (P08922 with tags, fused parts or gaps): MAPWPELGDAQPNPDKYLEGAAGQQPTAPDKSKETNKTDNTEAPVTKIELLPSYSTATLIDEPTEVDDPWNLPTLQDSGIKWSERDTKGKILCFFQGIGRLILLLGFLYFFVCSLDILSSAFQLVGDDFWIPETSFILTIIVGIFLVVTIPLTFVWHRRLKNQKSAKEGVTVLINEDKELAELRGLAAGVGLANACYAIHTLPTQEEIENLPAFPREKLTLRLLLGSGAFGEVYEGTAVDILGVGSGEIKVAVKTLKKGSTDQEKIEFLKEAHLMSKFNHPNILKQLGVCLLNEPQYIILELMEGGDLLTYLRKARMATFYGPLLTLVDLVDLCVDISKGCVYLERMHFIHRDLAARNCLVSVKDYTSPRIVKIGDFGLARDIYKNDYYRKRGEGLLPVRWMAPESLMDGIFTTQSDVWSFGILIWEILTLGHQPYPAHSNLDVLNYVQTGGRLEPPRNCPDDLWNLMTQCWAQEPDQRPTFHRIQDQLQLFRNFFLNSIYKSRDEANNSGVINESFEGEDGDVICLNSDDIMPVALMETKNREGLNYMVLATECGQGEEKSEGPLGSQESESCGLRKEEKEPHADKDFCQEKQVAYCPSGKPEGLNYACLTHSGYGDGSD

For `Cn1c2ccccc2c2c3c(c4c5ccccc5n(CCC#N)c4c21)CNC3=O` [Gö6976, 12-(2-cyanoethyl)-6,7,12,13-tetrahydro-13-methyl-5-oxo-5H-indolo(2,3-a)pyrrolo(3,4-c)-carbazole], in [1], the GI50 worked out at 1.4 nM. The IC50 in assay [2] (setting [17]) is more than 2000 nM. In addition, the apoptosis induction result in assay [3] and in [4] was “induced apoptosis” throughout. For the same molecule, in [5], the “autophosphorylation of FIG-ROS and ROS1-driven signaling (phospho-Shp2, phospho-ERK1/2)” value is “dose dependent decrease”. In [6], the “autophosphorylation of SLC-ROS and ROS1-driven signaling (phospho-Shp2, phospho-ERK1/2)” value is recorded as “dose dependent decrease”.
For `Cn1cc(-c2ccc3nnc(C(F)(F)c4ccc5ncccc5c4)n3n2)cn1` [JNJ38877605], in [7], the “HCC78 cell growth sensitivity to MET inhibitors” value is reported as “resistant”.
The same measure, in the same setting: with `Cn1cc(-c2ccc3nnc(Sc4ccc5ncccc5c4)n3n2)cn1` [SGX-523] the entry was “resistant”.
As for `COc1cc(N2CCC(N3CCN(C)CC3)CC2)ccc1Nc1ncc(Cl)c(Nc2ccccc2S(=O)(=O)C(C)C)n1` [TAE684], the GI50 in assay [1] was 2 nM and 1.8 nM; in [8], 28 nM. Further, the IC50 in assay [2] (setting [17]) was more than 2000 nM. In addition, the “autophosphorylation of FIG-ROS and ROS1-driven signaling (phospho-Shp2, phospho-ERK1/2)” value in [5] is “dose dependent decrease”. For the same molecule, the “autophosphorylation of SLC-ROS and ROS1-driven signaling (phospho-Shp2, phospho-ERK1/2)” value in assay [6] is listed as “dose dependent decrease”.
Regarding `C[C@@H](Oc1cc(-c2cnn(C3CCNCC3)c2)cnc1N)c1c(Cl)ccc(F)c1Cl` [crizotinib], the IC50 is more than 2000 nM in assay [2] (BaF3, read-out: IC50 (insensitive/resistant up to stated concentration)); 2200 nM in [7] (Homo sapiens, 72 hour exposure, read-out: IC50 HCC78 cell growth); 690 nM in assay [11]; more than 2000 nM in assay [12]. In addition, the “sensitivity of cell growth” value in assay [9] and in [10] was “relatively insensitive” each time. In addition, the “anchorage-independent colonies in soft agar” value in assay [13] is given as “inhibited”. Besides, in assay [14], the FIG-ROS tumor volume result is reported as “moderate but statistically insignificant effect”. For the same molecule, the “frequency of outgrowth of clones” value in [15] (500 nM crizotinib) was 40%. For the same molecule, the outgrowth of clones entry in [15] (2000 and 2500 nM crizotinib) is “no outgrowth of clones”. The “autophosphorylation of FIG-ROS and ROS1-driven signaling (phospho-Shp2, phospho-ERK1/2)” value in assay [5] is “dose dependent decrease”. The “autophosphorylation of SLC-ROS and ROS1-driven signaling (phospho-Shp2, phospho-ERK1/2)” value in assay [6] was “dose dependent decrease”. Also, the “auto-phosphorylation of FIG-ROS and phosphorylation of Shpt and ERK1/2” value in [16] was “more moderate effect”.
As for `C#Cc1cccc(Nc2ncnc3cc(OCCOC)c(OCCOC)cc23)c1` [erlotinib], the “sensitivity of cell growth” value in assay [9] and in assay [10] was “sensitive” in each case.
